Measurements taken from PubChem BioAssay (NCI).
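Briefly, cells in 96-well plates were exposed to five compound concentrations for 48 h, and endpoints were estimated by linear interpolation. TGI marks complete inhibition of growth.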

Experiments:
Assay in all cases: NCI anticancer screen, dose series, 48 h
[1] = system: MOLT-4 leukemia
[2] = system: COLO 205 colon
[3] = system: UACC-257 melanoma
[4] = system: DMS 273 small cell lung
[5] = system: NCI-H226 lung
[6] = system: XF 498 CNS
[7] = system: TK-10 renal
[8] = system: KM20L2 colon
[9] = system: SNB-75 CNS
[10] = system: SK-MEL-2 melanoma

Measured: TGI

CCOC(=O)/C(=C\c1ccc[nH]1)C(=O)c1ccccc1
> 100 µM: all assays above

C/C(=N\N=C(N)N)C(CN(C)C)C(c1ccccc1)c1c(O)c2ccccc2oc1=O (stereo not given)
> 100 µM: all assays above

NS(=O)(=O)c1ccc(NC(=O)c2cccc3cc4ccccc4nc23)cc1
> 91.2 µM: [7]
68.4 µM: [1]
98.7 µM: [5]
> 100 µM: all other assays above
